This is an account of results in doi:10.1101/2024.08.13.607785v1 (biorxiv, 2024).

Holding throughout (assay): biochemical
Common to all, as to set-up: species or system human cell line lysate

Experiment [1] has as its target Isoform 3 of Membrane-associated tyrosine- and threonine-specific cdc2 ; PKMYT1 ; Q99640-3 (Homo sapiens, UniProt Q99640).
Experiment [2] addresses Isoform Beta of cGMP-dependent protein kinase 1 ; PRKG1 ; Q13976-2 (Homo sapiens, UniProt Q13976).
Experiment [3] deals with MAP kinase-activated protein kinase 2 ; MAPKAPK2 ; P49137 (Homo sapiens, UniProt P49137).
The target of experiment [4] is Kinase suppressor of Ras 1 ; KSR1 ; Q8IVT5 (Homo sapiens, UniProt Q8IVT5).
Chain of Kinase suppressor of Ras 1 ; KSR1 ; Q8IVT5 (Q8IVT5 whole entry, canonical isoform): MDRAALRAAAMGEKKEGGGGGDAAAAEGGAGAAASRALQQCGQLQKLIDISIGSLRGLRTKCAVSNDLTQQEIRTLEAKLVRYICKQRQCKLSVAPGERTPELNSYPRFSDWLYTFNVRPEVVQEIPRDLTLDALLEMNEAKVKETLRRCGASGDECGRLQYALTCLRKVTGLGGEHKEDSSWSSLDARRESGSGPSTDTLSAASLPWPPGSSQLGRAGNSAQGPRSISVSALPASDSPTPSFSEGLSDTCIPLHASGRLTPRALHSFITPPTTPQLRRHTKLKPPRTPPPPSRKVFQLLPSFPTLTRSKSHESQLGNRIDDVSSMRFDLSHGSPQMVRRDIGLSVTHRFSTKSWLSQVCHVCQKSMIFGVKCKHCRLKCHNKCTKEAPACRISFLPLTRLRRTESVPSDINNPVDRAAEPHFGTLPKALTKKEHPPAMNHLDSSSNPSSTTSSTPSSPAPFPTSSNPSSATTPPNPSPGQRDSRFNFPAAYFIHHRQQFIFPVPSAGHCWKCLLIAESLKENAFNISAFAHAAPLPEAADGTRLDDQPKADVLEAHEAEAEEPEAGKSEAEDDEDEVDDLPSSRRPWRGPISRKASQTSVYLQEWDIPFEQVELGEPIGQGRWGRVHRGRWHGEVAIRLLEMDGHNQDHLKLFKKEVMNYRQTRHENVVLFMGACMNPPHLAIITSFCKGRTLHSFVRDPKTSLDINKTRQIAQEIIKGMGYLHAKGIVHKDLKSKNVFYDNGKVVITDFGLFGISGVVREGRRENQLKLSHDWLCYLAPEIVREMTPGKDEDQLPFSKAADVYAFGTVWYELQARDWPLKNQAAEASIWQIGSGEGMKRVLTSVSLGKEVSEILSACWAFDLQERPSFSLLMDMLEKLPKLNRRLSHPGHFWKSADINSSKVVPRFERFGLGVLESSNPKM
Experiment [5] concerns the target Isoform Mxi2 of Mitogen-activated protein kinase 14 ; MAPK14 ; Q16539-3 (Homo sapiens, UniProt Q16539).
For experiment [6], the target named is Misshapen-like kinase 1 ; MINK1 ; Q8N4C8 (Homo sapiens, UniProt Q8N4C8).
Chain of Misshapen-like kinase 1 ; MINK1 ; Q8N4C8 (Q8N4C8 whole entry): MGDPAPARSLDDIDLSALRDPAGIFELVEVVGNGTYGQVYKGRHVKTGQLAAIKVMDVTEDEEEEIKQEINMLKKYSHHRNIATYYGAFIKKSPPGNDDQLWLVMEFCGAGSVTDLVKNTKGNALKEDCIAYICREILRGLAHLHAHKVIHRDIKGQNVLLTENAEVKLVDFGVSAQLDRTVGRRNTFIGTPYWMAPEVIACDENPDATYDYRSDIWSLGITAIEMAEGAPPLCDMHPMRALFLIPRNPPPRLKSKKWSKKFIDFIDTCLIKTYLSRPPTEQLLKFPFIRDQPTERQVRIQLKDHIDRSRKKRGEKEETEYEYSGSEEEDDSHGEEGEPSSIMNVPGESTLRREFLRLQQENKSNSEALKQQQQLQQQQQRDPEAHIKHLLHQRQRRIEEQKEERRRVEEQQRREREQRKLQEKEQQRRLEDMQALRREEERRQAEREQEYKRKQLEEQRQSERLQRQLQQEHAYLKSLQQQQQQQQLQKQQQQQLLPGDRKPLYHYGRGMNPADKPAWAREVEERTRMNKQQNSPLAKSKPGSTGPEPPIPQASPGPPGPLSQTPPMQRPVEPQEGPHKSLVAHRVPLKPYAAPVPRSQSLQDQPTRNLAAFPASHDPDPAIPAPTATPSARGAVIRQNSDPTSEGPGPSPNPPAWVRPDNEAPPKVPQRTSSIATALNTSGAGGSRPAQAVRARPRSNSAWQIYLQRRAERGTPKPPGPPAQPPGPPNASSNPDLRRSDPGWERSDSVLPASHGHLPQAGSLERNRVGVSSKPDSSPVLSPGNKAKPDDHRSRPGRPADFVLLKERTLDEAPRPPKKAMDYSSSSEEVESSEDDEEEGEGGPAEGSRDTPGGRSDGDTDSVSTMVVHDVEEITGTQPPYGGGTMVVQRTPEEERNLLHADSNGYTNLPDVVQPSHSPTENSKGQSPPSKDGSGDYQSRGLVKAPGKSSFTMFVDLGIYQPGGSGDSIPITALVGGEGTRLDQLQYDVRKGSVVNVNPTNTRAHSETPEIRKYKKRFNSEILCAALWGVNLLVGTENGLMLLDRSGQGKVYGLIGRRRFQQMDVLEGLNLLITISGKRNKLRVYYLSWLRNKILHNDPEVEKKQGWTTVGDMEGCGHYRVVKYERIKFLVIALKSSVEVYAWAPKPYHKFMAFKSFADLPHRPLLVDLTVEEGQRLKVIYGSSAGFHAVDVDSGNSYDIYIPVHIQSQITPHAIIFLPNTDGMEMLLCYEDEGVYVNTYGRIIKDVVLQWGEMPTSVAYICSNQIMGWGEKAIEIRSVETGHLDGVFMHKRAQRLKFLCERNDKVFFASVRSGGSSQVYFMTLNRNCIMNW
The target in experiment [7] is Focal adhesion kinase 1 ; PTK2 ; Q05397 (Homo sapiens, UniProt Q05397).
Chain of Focal adhesion kinase 1 ; PTK2 ; Q05397 (Q05397 whole entry): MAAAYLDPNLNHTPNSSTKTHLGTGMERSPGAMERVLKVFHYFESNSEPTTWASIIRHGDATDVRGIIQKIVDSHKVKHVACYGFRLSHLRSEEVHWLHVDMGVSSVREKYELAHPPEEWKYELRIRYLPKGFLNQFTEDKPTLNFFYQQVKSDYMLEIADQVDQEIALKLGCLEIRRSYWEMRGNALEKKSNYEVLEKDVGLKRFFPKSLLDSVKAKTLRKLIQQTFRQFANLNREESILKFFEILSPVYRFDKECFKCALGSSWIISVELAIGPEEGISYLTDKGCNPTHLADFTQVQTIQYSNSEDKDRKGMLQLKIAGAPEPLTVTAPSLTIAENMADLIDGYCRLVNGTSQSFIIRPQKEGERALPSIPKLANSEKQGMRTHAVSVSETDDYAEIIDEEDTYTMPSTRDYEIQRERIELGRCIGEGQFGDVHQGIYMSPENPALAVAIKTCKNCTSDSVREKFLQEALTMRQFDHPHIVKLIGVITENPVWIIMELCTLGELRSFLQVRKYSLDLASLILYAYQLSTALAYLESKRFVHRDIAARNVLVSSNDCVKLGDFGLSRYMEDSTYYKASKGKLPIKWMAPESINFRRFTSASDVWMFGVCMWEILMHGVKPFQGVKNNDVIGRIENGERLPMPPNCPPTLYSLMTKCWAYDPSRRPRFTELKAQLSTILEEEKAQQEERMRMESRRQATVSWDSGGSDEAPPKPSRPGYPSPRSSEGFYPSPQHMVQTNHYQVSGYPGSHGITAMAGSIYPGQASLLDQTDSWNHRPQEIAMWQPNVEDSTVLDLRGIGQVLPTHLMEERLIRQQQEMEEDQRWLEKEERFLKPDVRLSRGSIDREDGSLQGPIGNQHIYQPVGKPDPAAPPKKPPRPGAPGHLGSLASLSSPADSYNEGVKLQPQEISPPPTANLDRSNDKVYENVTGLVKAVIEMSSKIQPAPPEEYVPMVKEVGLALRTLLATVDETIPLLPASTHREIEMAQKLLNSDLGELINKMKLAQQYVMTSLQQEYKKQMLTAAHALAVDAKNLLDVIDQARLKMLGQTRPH
The target in experiment [8] is Cyclin-dependent kinase 19 ; CDK19 ; Q9BWU1 (Homo sapiens, UniProt Q9BWU1).
Experiment [9] has as its target Calcium/calmodulin-dependent protein kinase kinase 1 ; CAMKK1 ; Q8N5S9 (Homo sapiens, UniProt Q8N5S9).
The target of experiment [10] is T1, Cyclin-dependent kinase-like 5 ; CDKL5 ; O76039 (Homo sapiens, UniProt O76039).
T1 sequence (O76039 1-960): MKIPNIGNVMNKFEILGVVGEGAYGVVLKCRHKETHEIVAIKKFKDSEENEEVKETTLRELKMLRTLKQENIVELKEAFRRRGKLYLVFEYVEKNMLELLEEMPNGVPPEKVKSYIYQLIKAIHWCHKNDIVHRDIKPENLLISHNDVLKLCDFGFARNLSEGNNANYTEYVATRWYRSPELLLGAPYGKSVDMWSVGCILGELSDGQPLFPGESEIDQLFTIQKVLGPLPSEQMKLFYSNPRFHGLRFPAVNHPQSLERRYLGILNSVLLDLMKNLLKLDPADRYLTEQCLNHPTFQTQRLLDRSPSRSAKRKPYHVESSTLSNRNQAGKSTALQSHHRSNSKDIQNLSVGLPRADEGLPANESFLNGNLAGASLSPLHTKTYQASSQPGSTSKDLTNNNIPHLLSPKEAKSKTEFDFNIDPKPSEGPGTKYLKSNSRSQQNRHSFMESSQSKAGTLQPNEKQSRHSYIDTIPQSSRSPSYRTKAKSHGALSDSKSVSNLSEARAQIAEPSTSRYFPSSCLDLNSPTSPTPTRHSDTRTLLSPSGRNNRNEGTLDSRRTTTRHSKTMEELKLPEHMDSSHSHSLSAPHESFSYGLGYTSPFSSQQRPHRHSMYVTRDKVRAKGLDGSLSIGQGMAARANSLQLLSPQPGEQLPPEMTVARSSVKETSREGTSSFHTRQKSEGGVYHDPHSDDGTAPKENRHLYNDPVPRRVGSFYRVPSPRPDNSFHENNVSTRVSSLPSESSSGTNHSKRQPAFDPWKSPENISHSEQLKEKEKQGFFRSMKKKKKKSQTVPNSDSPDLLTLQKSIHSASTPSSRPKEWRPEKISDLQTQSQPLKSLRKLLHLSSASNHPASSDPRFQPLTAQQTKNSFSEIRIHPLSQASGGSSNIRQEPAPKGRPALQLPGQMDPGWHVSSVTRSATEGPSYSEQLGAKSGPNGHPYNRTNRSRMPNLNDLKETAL

The target of experiment [11] is Non-receptor tyrosine-protein kinase TYK2 ; TYK2 ; P29597 (Homo sapiens, UniProt P29597).
Chain of Non-receptor tyrosine-protein kinase TYK2 ; TYK2 ; P29597 (P29597 whole entry): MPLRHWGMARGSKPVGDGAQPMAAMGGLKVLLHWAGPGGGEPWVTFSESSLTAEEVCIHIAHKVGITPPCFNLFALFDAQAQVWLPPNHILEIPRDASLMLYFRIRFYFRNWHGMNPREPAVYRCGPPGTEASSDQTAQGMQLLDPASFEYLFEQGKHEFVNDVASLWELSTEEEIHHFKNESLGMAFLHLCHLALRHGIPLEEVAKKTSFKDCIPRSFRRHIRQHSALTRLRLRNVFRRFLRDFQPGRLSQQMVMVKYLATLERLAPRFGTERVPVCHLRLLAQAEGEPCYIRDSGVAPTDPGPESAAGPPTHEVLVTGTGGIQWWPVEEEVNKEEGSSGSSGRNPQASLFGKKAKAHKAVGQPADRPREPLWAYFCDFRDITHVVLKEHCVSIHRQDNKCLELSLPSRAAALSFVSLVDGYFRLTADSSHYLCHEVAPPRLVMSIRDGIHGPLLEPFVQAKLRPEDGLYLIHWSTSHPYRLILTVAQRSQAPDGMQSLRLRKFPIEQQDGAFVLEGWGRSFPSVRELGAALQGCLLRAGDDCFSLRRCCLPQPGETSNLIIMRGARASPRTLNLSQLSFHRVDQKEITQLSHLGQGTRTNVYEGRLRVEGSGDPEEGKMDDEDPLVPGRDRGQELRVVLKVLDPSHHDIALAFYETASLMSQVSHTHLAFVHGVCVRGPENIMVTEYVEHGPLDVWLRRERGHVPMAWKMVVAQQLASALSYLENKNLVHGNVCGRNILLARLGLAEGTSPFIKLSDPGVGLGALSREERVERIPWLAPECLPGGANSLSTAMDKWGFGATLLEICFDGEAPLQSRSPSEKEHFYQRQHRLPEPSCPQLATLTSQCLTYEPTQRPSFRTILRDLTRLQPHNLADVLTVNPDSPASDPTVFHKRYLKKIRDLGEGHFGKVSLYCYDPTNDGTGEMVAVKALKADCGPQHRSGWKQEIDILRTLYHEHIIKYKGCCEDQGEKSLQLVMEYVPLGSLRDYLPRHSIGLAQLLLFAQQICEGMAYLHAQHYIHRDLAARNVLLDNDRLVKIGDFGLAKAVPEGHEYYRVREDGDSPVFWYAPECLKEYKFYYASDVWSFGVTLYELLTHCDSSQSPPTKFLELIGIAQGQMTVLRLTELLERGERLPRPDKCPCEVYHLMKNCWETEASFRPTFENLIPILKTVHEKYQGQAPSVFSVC
Experiment [12] has as its target T2, Interleukin-1 receptor-associated kinase 3 ; IRAK3 ; Q9Y616 (Homo sapiens, UniProt Q9Y616).
T2 sequence (Q9Y616 1-596): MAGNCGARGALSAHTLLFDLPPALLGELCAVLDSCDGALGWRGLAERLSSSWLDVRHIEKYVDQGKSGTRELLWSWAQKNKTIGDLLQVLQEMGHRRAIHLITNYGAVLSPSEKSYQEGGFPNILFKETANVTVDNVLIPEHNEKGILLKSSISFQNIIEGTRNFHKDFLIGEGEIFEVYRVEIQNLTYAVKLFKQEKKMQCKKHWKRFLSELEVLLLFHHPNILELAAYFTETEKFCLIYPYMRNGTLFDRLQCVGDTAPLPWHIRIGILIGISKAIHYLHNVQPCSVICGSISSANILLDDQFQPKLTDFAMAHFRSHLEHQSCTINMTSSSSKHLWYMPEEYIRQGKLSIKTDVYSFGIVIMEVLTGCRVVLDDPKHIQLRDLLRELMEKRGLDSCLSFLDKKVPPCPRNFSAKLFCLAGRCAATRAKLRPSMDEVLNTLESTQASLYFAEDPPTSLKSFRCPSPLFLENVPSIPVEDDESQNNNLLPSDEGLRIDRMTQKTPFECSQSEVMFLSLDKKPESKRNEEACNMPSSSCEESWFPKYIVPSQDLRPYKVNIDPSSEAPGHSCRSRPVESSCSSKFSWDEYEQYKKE

Where [13] appears, read: read-out: BAY-1143572 (10 µM) / %Intensity relative to DMSO.
Where [14] appears, read: read-out: BAY-1251152 (10 µM) / %Intensity relative to DMSO.

One may read the IC50 as the midpoint of a concentration-inhibition curve.

The structures appear in SMILES notation. Like-named read-outs stand apart in the source and are kept apart here.

Chain of Isoform Mxi2 of Mitogen-activated protein kinase 14 ; MAPK14 ; Q16539-3 (Q16539 whole entry, canonical isoform): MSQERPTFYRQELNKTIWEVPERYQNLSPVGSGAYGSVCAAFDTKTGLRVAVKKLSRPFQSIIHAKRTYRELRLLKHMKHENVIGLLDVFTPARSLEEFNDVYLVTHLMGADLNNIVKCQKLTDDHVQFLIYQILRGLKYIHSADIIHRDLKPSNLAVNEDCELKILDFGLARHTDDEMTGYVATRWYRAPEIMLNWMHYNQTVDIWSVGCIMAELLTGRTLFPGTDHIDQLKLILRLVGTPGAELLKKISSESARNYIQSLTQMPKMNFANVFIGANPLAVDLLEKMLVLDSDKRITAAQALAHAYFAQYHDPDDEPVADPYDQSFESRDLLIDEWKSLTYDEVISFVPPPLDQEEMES

As to `COc1cc(F)ccc1-c1ncnc(Nc2cccc(C[S@](C)(=N)=O)c2)n1` [BAY-1143572], the remaining activity at 10 µM turned out to be 117% in experiment [1] (setting [13]); 130% in experiment [2] (setting [13]); 128% in experiment [3] (setting [13]); 131% in [4] (setting [13]); 128% in experiment [5] (setting [13]); 72.9% in experiment [6] (setting [13]). For the same compound, the remaining activity at 10 µM in [7] (setting [13]) amounted to 102%. Moreover, the IC50 in experiment [8] was above 10000 nM; in experiment [9] it was 379 nM; in experiment [10], 3360 nM; in experiment [11], 2990 nM; in experiment [12] it was 2980 nM.

With `COc1cc(F)ccc1-c1cc(Nc2cc(CS(C)(=N)=O)ccn2)ncc1F` (stereo not drawn) [BAY-1251152], the remaining activity at 10 µM in experiment [1] (setting [14]) turned out to be 107%; in experiment [2] (setting [14]), 117%; in experiment [3] (setting [14]), 119%; in experiment [4] (setting [14]), 146%; in [5] (setting [14]), 119%; in experiment [6] (setting [14]) it was 54.1%. Also, in experiment [7] (setting [14]), the remaining activity at 10 µM worked out at 99.3%. Besides, the IC50 in [8] was above 10000 nM; in experiment [9], 305 nM; in experiment [10], above 10000 nM; in experiment [11] it was above 10000 nM; in [12], above 10000 nM.
